Assay results: publication PMC6270026, “Antibacterial and Herbicidal Activity of Ring-Substituted 2-Hydroxynaphthalene-1-carboxanilides” (Molecules, 2013)
Converted amounts (≈) assume the structure as drawn. “And” between values parts separate entries of the source, which are not always exact repeats. Equal values may be shown once.

How the values were obtained:
[1] = Lipophilicity determination by RP-HPLC (capacity factor log k); format: physicochemical; details: isocratic, MeOH 60%/H2O 40%, C18
Description: A HPLC system Agilent 1200 equipped with DAD detector (Agilent, Santa Clara, CA, USA) was used. A chromatographic column Symmetry® C18 5 μm, 4.6 × 250 mm, Part No. WAT054275, (Waters Corp., Milford, MA, USA) was used. The HPLC separation process was monitored and evaluated by EZChrom Elite software ver. 3.3.2 (Agilent). Isocratic elution by a mixture of MeOH p.a. (60%) and H2O-HPLC Mili-Q grade (40%) as a mobile phase was used. The total flow of the column was 1.0 mL/min, injection 20 μL, column temperature 40 °C and sample temperature 10 °C. The detection wavelength 210 nm was chosen. The KI methanolic solution was used for the dead time (tD) determination. Retention times (tR) were measured in minutes. The capacity factors k were calculated according to formula k = (tR − tD)/tD, where tR is the retention time of the solute, whereas tD denotes the dead time obtained using an unretained analyte. Log k, calculated from the capacity factor k, is used as the lipophilicity index converted to log P scale.

[2] = system: methicillin-resistant Staphylococcus aureus SA 630; test: In vitro antibacterial susceptibility testing (broth dilution MIC); format: cell-based; details: MRSA, clinical isolate SA 630, 24 h, 37 °C
Description: (§1) The synthesized compounds were evaluated for in vitro antibacterial activity against representatives of multidrug-resistant bacteria, clinical isolates of methicillin-resistant Staphylococcus aureus (MRSA) 63718, SA 630 and SA 3202 that were obtained from the National Institute of Public Health, Prague, Czech Republic. Staphylococcus aureus ATCC 29213 was used as a reference and quality control strain. Ampicillin (Sigma-Aldrich) was used as the standard. Prior to testing, each strain was passaged onto nutrient agar (Oxoid, Hampshire, UK) with 5% of bovine blood, and bacterial inocula were prepared by suspending a small portion of bacterial colony in sterile phosphate buffered saline (pH 7.2–7.3). The cell density was adjusted to 0.5 McFarland units using a densitometer (Densi-La-Meter, LIAP, Riga, Latvia). The final inoculum was made by 1:20 dilution of the suspension with the Mueller-Hinton broth (MH broth). […] The final concentrations of the evaluated compounds ranging from 256 μg/mL to 0.008 μg/mL. The broth dilution micro-method modified according to NCCLS guidelines in MH broth was used to determine the minimum inhibitory concentration (MIC). Drug-free controls, sterility controls and controls consisted of MH broth and DMSO alone were included. The determination of results was performed visually after 24 h of static incubation in the darkness at 37 °C in an aerobic atmosphere. The MICs were defined as the lowest concentration of the compound at which no visible bacterial growth was observed.

[3] = system: methicillin-resistant Staphylococcus aureus (MRSA) 63718; test: as above; format: cell-based; details: clinical isolate MRSA 63718, 24 h, 37 °C
Description: as §1

[4] = system: methicillin-resistant Staphylococcus aureus SA 3202; test: as above; format: cell-based; details: MRSA, clinical isolate SA 3202, 24 h, 37 °C, read-out: MIC MRSA 3202
Description: as §1

[5] = system: Staphylococcus aureus ATCC 29213; test: as above; format: cell-based; details: ATCC29213; Staphylococcus aureus ATCC 29213, 24 h, 37 °C
Description: as §1

M. kansasii DSM 44162 = test: In vitro antimycobacterial evaluation (broth dilution MIC); format: cell-based; details: Mycobacterium kansasii, DSM44162, 168 h; M. kansasii DSM 44162, 7 days, 37 °C
M. smegmatis ATCC 700084 = test: as above; format: cell-based, Mycobacterium smegmatis; details: Mycolicibacterium smegmatis, ATCC700084, 72 h; M. smegmatis ATCC 700084, 3 days, 37 °C
[6] = system: photosynthetic electron transport (PET) in spinach chloroplasts; test: Inhibition of photosynthetic electron transport (PET) in spinach chloroplasts; format: biochemical, Spinacia oleracea L.; details: DCPIP photoreduction
Description: Chloroplasts were prepared from spinach (Spinacia oleracea L.) according to Masarovicova and Kralova. The inhibition of photosynthetic electron transport (PET) in spinach chloroplasts was determined spectrophotometrically (Genesys 6, Thermo Electron Scientific Instruments, Madison, WI, USA), using an artificial electron acceptor 2,6-dichlorophenol-indophenol (DCPIP) according to Kralova et al., and the rate of photosynthetic electron transport was monitored as a photoreduction of DCPIP. The measurements were carried out in phosphate buffer (0.02 mol/L, pH 7.2) containing sucrose (0.4 mol/L), MgCl2 (0.005 mol/L) and NaCl (0.015 mol/L). The chlorophyll content was 30 mg/L in these experiments and the samples were irradiated (~100 W/m^2 with 10 cm distance) with a halogen lamp (250 W) using a 4 cm water filter to prevent warming of the samples (suspension temperature 22 °C). The studied compounds were dissolved in DMSO due to their limited water solubility. […] The inhibitory efficiency of the studied compounds was expressed by IC50 values, i.e., by molar concentration of the compounds causing 50% decrease in the oxygen evolution rate relative to the untreated control.

[7] = system: Mycobacterium marinum CAMP 5644; test: In vitro antimycobacterial evaluation (broth dilution MIC); format: cell-based; details: for MIC: Mycobacterium marinum, CAMP5644, 504 h, M. marinum CAMP 5644, 21 days, 28 °C
[8] = system: Mycobacterium avium subsp. paratuberculosis (CIT03); test: In vitro antimycobacterial evaluation (alamarBlue MIC); format: cell-based; details: 264 h, M. avium paratuberculosis CIT03, 11 days, 37 °C
Description: A well characterised clinical isolate of Mycobacterium avium subsp. paratuberculosis (CIT03) was grown in Middlebrook broth (MB), supplemented with Oleic-Albumin-Dextrose-Catalase supplement (OADC, Becton, Dickinson & Comp., Franklin Lakes, NJ, USA) and mycobactin J (2 µg/mL). Identification of this isolate was performed using biochemical and molecular protocols. At log phase growth, a culture sample (10 mL) was centrifuged at 15,000 rpm/20 min using a bench top centrifuge (Model CR 4-12, Jouan Inc., Winchester, VA, USA). Following removal of the supernatant, the pellet was washed in fresh Middlebrook 7H9GC broth and re-suspended in fresh supplemented MB (10 mL). The turbidity was adjusted to match McFarland standard No. 1 (3 × 10^8 cfu) with MB broth. A further 1:20 dilution of the culture was then performed in MB broth. The antimicrobial susceptibility of the mycobacterial species was investigated in a 96-well plate format. In these experiments, sterile deionised water (300 µL) was added to all outer-perimeter wells of the plates to minimize evaporation of the medium in the test wells during incubation. Each evaluated compound (100 µL) was incubated with each of the mycobacterial species (100 µL). Dilutions of each compound were prepared in duplicate. For all synthesized compounds, final concentrations ranged from 1,000 µg/mL to 8 µg/mL. All compounds were prepared in DMSO and subsequent dilutions were made in supplemented MB. The plates were sealed with parafilm and incubated at 37 °C, for 11 days in the case of M. avium paratuberculosis. Following incubation, a 10% addition of alamarBlue (AbD Serotec, Kidlington, UK) was mixed into each well and readings at 570 nm and 600 nm were taken, initially for background subtraction and subsequently after 24 h re-incubation. The background subtraction is necessary for strongly coloured compounds, where the colour may interfere with the interpretation of any colour change. For non-interfering compounds, a blue colour in the well was interpreted as an absence of growth and a pink colour was scored as growth. The minimum inhibitory concentrations (MICs) were initially defined as the lowest concentration which prevented a visual colour change from blue to pink.
The MICs were defined as the lowest concentration of the compound at which no visible bacterial growth was observed. The MIC value is routinely and widely used in bacterial assays and is a standard detection limit according to the Clinical and Laboratory Standards Institute (CLSI). Isoniazid (Sigma-Aldrich) was used as reference antimycobacterial drug.

Structure (SMILES)	log k [1]	MIC [2]	MIC [3]	MIC [4]	MIC [5]	MIC (M. kansasii DSM 44162)	MIC (M. smegmatis ATCC 700084)	IC50 [6]	MIC [7]	MIC [8]	fold higher activity against M. marinum than isoniazid ([7]; ratio of MIC to isoniazid)
CC1(C)S[C@@H]2[C@H](NC(=O)[C@H](N)c3ccccc3)C(=O)N2[C@H]1C(=O)O [APC, ampicillin, reference compound]	0.4337	> 45.8 µM	> 45.8 µM	> 45.8 µM	5.7 µM (≈ 1.99 µg/mL)						
COc1ccccc1NC(=O)c1c(O)ccc2ccccc12 [Compound 2a, 2-Hydroxy-N-(2-methoxyphenyl)naphthalene-1-carboxamide]	0.5121	> 873 µM	> 873 µM	> 873 µM	> 873 µM	> 873 µM	> 873 µM	477 µM	> 873 µM	852 µM (≈ 250 µg/mL)	
COc1cccc(NC(=O)c2c(O)ccc3ccccc23)c1 [Compound 2b, 2-Hydroxy-N-(3-methoxyphenyl)naphthalene-1-carboxamide]	0.6582			218 µM (≈ 63.9 µg/mL)		109 µM (≈ 32 µg/mL)	218 µM (≈ 63.9 µg/mL)	681 µM	218 µM (≈ 63.9 µg/mL)	426 µM (≈ 125 µg/mL)	
COc1ccc(NC(=O)c2c(O)ccc3ccccc23)cc1 [Compound 2c, 2-Hydroxy-N-(4-methoxyphenyl)naphthalene-1-carboxamide]	0.6342					218 µM (≈ 63.9 µg/mL)			109 µM (≈ 32 µg/mL)	852 µM (≈ 250 µg/mL)	
Cc1ccccc1NC(=O)c1c(O)ccc2ccccc12 [Compound 3a, 2-Hydroxy-N-(2-methylphenyl)naphthalene-1-carboxamide]	0.7962					115 µM (≈ 31.9 µg/mL)		586 µM	231 µM (≈ 64.1 µg/mL)	451 µM (≈ 125 µg/mL)	
Cc1cccc(NC(=O)c2c(O)ccc3ccccc23)c1 [Compound 3b, 2-Hydroxy-N-(3-methylphenyl)naphthalene-1-carboxamide]	0.4593	231 µM (≈ 64.1 µg/mL)		231 µM (≈ 64.1 µg/mL)	231 µM (≈ 64.1 µg/mL)	115 µM (≈ 31.9 µg/mL)	231 µM (≈ 64.1 µg/mL)	372 µM	231 µM (≈ 64.1 µg/mL)	451 µM (≈ 125 µg/mL)	
Cc1ccc(NC(=O)c2c(O)ccc3ccccc23)cc1 [Compound 3c, 2-Hydroxy-N-(4-methylphenyl)naphthalene-1-carboxamide]	0.3751				231 µM (≈ 64.1 µg/mL)	115 µM (≈ 31.9 µg/mL)		874 µM	115 µM (≈ 31.9 µg/mL)	451 µM (≈ 125 µg/mL)	
O=C(Nc1ccccc1F)c1c(O)ccc2ccccc12 [Compound 4a, N-(2-fluorophenyl)-2-hydroxynaphthalene-1-carboxamide]	0.5664	455 µM (≈ 128 µg/mL)	455 µM (≈ 128 µg/mL)	455 µM (≈ 128 µg/mL)	228 µM (≈ 64.1 µg/mL)	114 µM (≈ 32.1 µg/mL)	228 µM (≈ 64.1 µg/mL)	243 µM	228 µM (≈ 64.1 µg/mL)	203 µM (≈ 57.1 µg/mL)	
O=C(Nc1cccc(F)c1)c1c(O)ccc2ccccc12 [Compound 4b, N-(3-fluorophenyl)-2-hydroxynaphthalene-1-carboxamide]	0.5025	> 910 µM	> 910 µM	228 µM (≈ 64.1 µg/mL)	228 µM (≈ 64.1 µg/mL)	114 µM (≈ 32.1 µg/mL)	> 910 µM	213 µM	> 910 µM	> 889 µM	
O=C(Nc1ccc(F)cc1)c1c(O)ccc2ccccc12 [Compound 4c, N-(4-fluorophenyl)-2-hydroxynaphthalene-1-carboxamide]	0.5568	> 910 µM	> 910 µM	> 910 µM	> 910 µM	> 910 µM	> 910 µM	313 µM	> 910 µM	> 889 µM	
O=C(Nc1cccc(Cl)c1)c1c(O)ccc2ccccc12 [Compound 5b, N-(3-chlorophenyl)-2-hydroxynaphthalene-1-carboxamide]	0.7904	> 860 µM	> 860 µM	107 µM (≈ 31.9 µg/mL)	> 860 µM	53.7 µM (≈ 16 µg/mL)	215 µM (≈ 64 µg/mL)	79.7 µM	> 860 µM	840 µM (≈ 250 µg/mL)	
O=C(Nc1ccc(Cl)cc1)c1c(O)ccc2ccccc12 [Compound 5c, N-(4-chlorophenyl)-2-hydroxynaphthalene-1-carboxamide]	0.7908	> 860 µM	> 860 µM	107 µM (≈ 31.9 µg/mL)	215 µM (≈ 64 µg/mL)	53.7 µM (≈ 16 µg/mL)	> 860 µM	59.2 µM	> 860 µM	420 µM (≈ 125 µg/mL)	
O=C(Nc1ccc([N+](=O)[O-])cc1)c1c(O)ccc2ccccc12 [Compound 8c, 2-Hydroxy-N-(4-nitrophenyl)naphthalene-1-carboxamide]	0.6260			104 µM (≈ 32.1 µg/mL)		415 µM (≈ 128 µg/mL)		37.5 µM	~52 µM (≈ 16 µg/mL)	811 µM (≈ 250 µg/mL)	about 9 fold
CN(C)C(=O)Nc1ccc(Cl)c(Cl)c1 [DCMU, 3-(3,4-dichlorophenyl)-1,1-dimethylurea, reference compound]	0.8801							~1.9 µM and 1.9 µM			
NNC(=O)c1ccncc1 [INH, isoniazid, reference compound]	0.0141								467 µM (≈ 64 µg/mL)	> 1820 µM	
